Test results as given in patent US20250255781A1, “PROCESSES FOR PREPARATION OF 3-D PRINTED PHARMACEUTICAL PRODUCTS” (BRISTOL-MYERS SQUIBB COMPANY, priority 2022, published 2025).

Assay: Thermal gravimetric analysis (TGA) of thermal stability
Format: physicochemical
Details: heated 25-500° C. at 10° C./min; degradation beyond
Protocol: 2-2.5 mg of polymer and drug samples were carefully weighed and positioned in to a standard aluminium pan. The samples were heated from 25° C. to 500° C. at 10° C./min. The extracted raw data were analysed via TA Universal Analysis software (Universal Analysis 2000, version 4.5A, TA instruments, USA).

thermally stable when heated up to (TGA): up to 140 °C
Structure (SMILES): CC(C)Cc1ccc(C(C)C(=O)O)cc1 (stereo not shown) [IBU, Ibuprofen]
